The record followed here is ChEMBL document CHEMBL1201862, “PubChem BioAssay data set” (2004).

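Protocol summary: plate cells (96-well), add compound at 5 concentrations, incubate 48 h, interpolate endpoints linearly. Abbreviation: GI50, concentration required for 50% inhibition of growth.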 Activity calls are given as the source filed them. Rule as the data show it: active = GI50 up to about 1.1 µM and inactive = higher.

Some test systems named below: SNB-75; NCI-H460; OVCAR-3; LOX IMVI; UACC-257; HCT-116; SW-620; SN12C; OVCAR-8; MOLT-4; UACC-62; 786-0; MDA-MB-231; EKVX; T47D; M14; ACHN; HOP-62; Malme-3M.
Holding throughout (test): growth of human tumour cells (NCI), 48 h

Regarding `O=C(O)c1ccc(C(=O)Nc2cccc3ccccc23)c(C(=O)O)c1`, the GI50 in the assay with SNB-75, in the assay with NCI-H460, in the assay with OVCAR-3, in the assay with LOX IMVI, in the assay with UACC-257 and in the assay on HCT-116 was > 100 µM (inactive) in each case. Moreover, the GI50 in the assay on SW-620, in the assay on SN12C, with OVCAR-8, in the assay on MOLT-4, in the assay with UACC-62 and in the assay with 786-0 was > 100 µM (inactive) each time. Further, the GI50 in the assay with MDA-MB-231, in the assay with EKVX, in the assay on T47D, with M14, in the assay on ACHN and with HOP-62 was > 100 µM (inactive) each time. The GI50 in the assay with Malme-3M is > 100 µM (inactive).

Take `CC(=O)N1N=C(N)CC1=O`: the GI50 in the assay on SNB-75, with NCI-H460, in the assay on OVCAR-3, with LOX IMVI, in the assay with UACC-257 and in the assay on HCT-116 was > 100 µM (inactive) throughout. In addition, the GI50 in the assay on SW-620, in the assay on SN12C, with OVCAR-8, in the assay with MOLT-4, with UACC-62 and with 786-0 was > 100 µM (inactive) each time. The GI50 in the assay on MDA-MB-231, with EKVX, in the assay on T47D, in the assay on M14, in the assay with ACHN and with HOP-62 was > 100 µM (inactive) throughout. Also, the GI50 in the assay on Malme-3M was > 100 µM (inactive).

Turning to `CCOC(=O)[C@H](O)[C@@H](O)C(=O)NCc1ccc(C(=O)c2ccccc2)cc1`, the GI50 with SNB-75, with NCI-H460, in the assay with OVCAR-3, in the assay with LOX IMVI, in the assay with UACC-257 and with HCT-116 was > 100 µM (inactive) throughout. For the same molecule, the GI50 in the assay with SW-620, in the assay on SN12C, in the assay with OVCAR-8, with MOLT-4, with UACC-62 and in the assay on 786-0 was > 100 µM (inactive) each time. For the same molecule, the GI50 in the assay with MDA-MB-231, in the assay with EKVX, in the assay on T47D, with M14, in the assay with ACHN and in the assay with HOP-62 was > 100 µM (inactive) each time. The GI50 in the assay on Malme-3M was > 100 µM (inactive).

For `O=C(c1ccccc1)n1[nH]c(=O)n(-c2ccc(Cl)cc2)c1=O`, the GI50 in the assay with SNB-75, with NCI-H460, with OVCAR-3, in the assay on LOX IMVI, in the assay on UACC-257 and in the assay on HCT-116 was > 100 µM (inactive) each time. Besides, the GI50 in the assay with SW-620, in the assay with SN12C, with OVCAR-8, in the assay on MOLT-4, in the assay with UACC-62 and with 786-0 was > 100 µM (inactive) in each case. Besides, the GI50 in the assay with MDA-MB-231, with EKVX, in the assay on T47D, with M14, in the assay on ACHN and in the assay on HOP-62 was > 100 µM (inactive) each time. In addition, the GI50 in the assay on Malme-3M was > 100 µM (inactive).

As to `CCCCCCC(=O)OC[n+]1ccc(-c2c(COC(=O)NC(C)C)c(COC(=O)NC(C)C)c3n2CCC3)cc1`, the GI50 is > 68.1 µM (inactive) in the assay with SNB-75; 35.6 µM (inactive) in the assay with NCI-H460; > 100 µM (inactive) in the assay with OVCAR-3; 42.9 µM (inactive) with LOX IMVI; > 100 µM (inactive) with UACC-257; > 89.9 µM (inactive) with HCT-116. Also, the GI50 is 74.5 µM (inactive) with SW-620; 49.5 µM (inactive) in the assay on SN12C; > 100 µM (inactive) in the assay with OVCAR-8; 25.2 µM (inactive) in the assay with MOLT-4; 37.1 µM (inactive) in the assay with UACC-62; 39.6 µM (inactive) in the assay on 786-0. Also, the GI50 in the assay on MDA-MB-231 was > 71.3 µM (inactive); with EKVX, > 100 µM (inactive); with T47D, > 100 µM (inactive); in the assay on M14, > 87.9 µM (inactive); in the assay on ACHN it was 41 µM (inactive); with HOP-62, > 64.3 µM (inactive). In the assay on Malme-3M, the GI50 is > 64.7 µM (inactive).

As for `COc1ccccc1C1C2=C(COC2=O)Oc2cc3c(cc21)OCO3` (centres undefined), the GI50 in the assay with SNB-75 is 3.51 µM (inactive); in the assay on NCI-H460 it was 3.64 µM (inactive); with OVCAR-3 it was 2.55 µM (inactive); in the assay with LOX IMVI it was 2.27 µM (inactive); in the assay on UACC-257 it was 21.1 µM (inactive); in the assay on HCT-116 it was 1.87 µM (inactive). Besides, the GI50 was 1.38 µM (inactive) in the assay on SW-620; 3.82 µM (inactive) in the assay on SN12C; 3.39 µM (inactive) in the assay on OVCAR-8; 1.59 µM (inactive) in the assay with MOLT-4; 1.06 µM (active) in the assay on UACC-62; 3.18 µM (inactive) with 786-0. For the same molecule, the GI50 is 3.45 µM (inactive) in the assay with MDA-MB-231; 2.29 µM (inactive) with EKVX; 2.32 µM (inactive) with T47D; 1.4 µM (inactive) in the assay with M14; 14 µM (inactive) in the assay on ACHN; 3.93 µM (inactive) in the assay with HOP-62. In addition, the GI50 with Malme-3M was 14.1 µM (inactive).

Take `COC(=O)C1(C)CC2C(C)(CCC3(C)C4=CC=C5C(=CC(=O)C(O)=C5C)C4(C)CCC23C)CC1O` (centres undefined): the GI50 in the assay on SNB-75 is 1.92 µM (inactive); with NCI-H460 it was 1.79 µM (inactive); with OVCAR-3, 0.774 µM (active); with LOX IMVI, 0.333 µM (active); in the assay on UACC-257, 1.72 µM (inactive); with HCT-116 it was 0.564 µM (active). Moreover, the GI50 in the assay with SW-620 is 0.405 µM (active); with SN12C, 1.49 µM (inactive); in the assay with OVCAR-8, 0.822 µM (active); in the assay with MOLT-4 it was 0.285 µM (active); with UACC-62 it was 0.962 µM (active); with 786-0, 0.226 µM (active). Also, the GI50 in the assay on MDA-MB-231 is 0.577 µM (active); in the assay on EKVX it was 1.3 µM (inactive); with T47D, 0.495 µM (active); in the assay on M14, 1.26 µM (inactive); in the assay on ACHN it was 0.45 µM (active); with HOP-62, 1.86 µM (inactive). Also, the GI50 with Malme-3M was 0.762 µM (active).

On to `O=CC(=C(I)I)c1ccccc1`, for which the GI50 was 2.64 µM (inactive) in the assay with SNB-75; 17.1 µM (inactive) with NCI-H460; 1.98 µM (inactive) in the assay on OVCAR-3; 1.66 µM (inactive) in the assay with LOX IMVI; 2.9 µM (inactive) in the assay on UACC-257; 0.855 µM (active) in the assay on HCT-116. Also, the GI50 is 0.728 µM (active) with SW-620; 2.28 µM (inactive) in the assay with SN12C; 2.46 µM (inactive) with OVCAR-8; 0.289 µM (active) with MOLT-4; 6.08 µM (inactive) in the assay with UACC-62; 2.14 µM (inactive) in the assay on 786-0. Also, the GI50 in the assay on MDA-MB-231 is 2.87 µM (inactive); in the assay on EKVX, 11.5 µM (inactive); in the assay with T47D, 3.55 µM (inactive); with M14 it was 1.75 µM (inactive); with ACHN, 3 µM (inactive); in the assay with HOP-62 it was 7.24 µM (inactive). Besides, the GI50 in the assay on Malme-3M was 2.15 µM (inactive).

Take `COc1cc(C2c3cc4c(cc3OC(NCCO)C2C)OCO4)cc(OC)c1OC` (centres undefined): the GI50 with SNB-75 is 1.12 µM (inactive); in the assay with NCI-H460, 0.409 µM (active); in the assay on OVCAR-3 it was 0.244 µM (active); in the assay with LOX IMVI, 0.42 µM (active); with UACC-257, 1.61 µM (inactive); with HCT-116, 0.364 µM (active). The GI50 is 0.326 µM (active) in the assay on SW-620; 0.658 µM (active) in the assay with SN12C; 2.2 µM (inactive) in the assay on OVCAR-8; 0.489 µM (active) with MOLT-4; 0.378 µM (active) in the assay with UACC-62; 1.8 µM (inactive) in the assay on 786-0. Besides, the GI50 was 1.6 µM (inactive) with MDA-MB-231; 13.1 µM (inactive) with EKVX; > 74.3 µM (inactive) in the assay on T47D; 0.27 µM (active) in the assay with M14; 0.755 µM (active) in the assay with ACHN; 0.289 µM (active) in the assay with HOP-62. Besides, the GI50 in the assay on Malme-3M was 0.431 µM (active).

Regarding `COC(=O)/C(C#N)=C1\NC(=O)CC(c2ccccc2)C1C#N` (centres undefined), the GI50 in the assay on SNB-75, in the assay with NCI-H460, with OVCAR-3, with LOX IMVI, in the assay on UACC-257 and in the assay on HCT-116 was > 100 µM (inactive) in each case. Also, the GI50 in the assay on SW-620, with SN12C, in the assay on OVCAR-8, in the assay on MOLT-4, in the assay on UACC-62 and with 786-0 was > 100 µM (inactive) throughout. Also, the GI50 in the assay on MDA-MB-231, in the assay with EKVX, in the assay with T47D, with M14, in the assay on ACHN and in the assay with HOP-62 was > 100 µM (inactive) throughout. In addition, in the assay on Malme-3M, the GI50 is > 100 µM (inactive).

`NCCNCCCCCCNC(=O)c1cccc2cc3ccccc3nc12`: the GI50 with SNB-75 was 3.94 µM (inactive); in the assay with NCI-H460 it was 0.871 µM (active); in the assay on OVCAR-3 it was 2.51 µM (inactive); in the assay on LOX IMVI it was 1.47 µM (inactive); in the assay with UACC-257 it was 6.1 µM (inactive); in the assay with HCT-116, 2.15 µM (inactive). Also, the GI50 was 1.49 µM (inactive) with SW-620; 2.42 µM (inactive) in the assay on SN12C; 2.03 µM (inactive) with OVCAR-8; 0.838 µM (active) with MOLT-4; 2.01 µM (inactive) in the assay on UACC-62; 1.36 µM (inactive) in the assay with 786-0. In addition, the GI50 with MDA-MB-231 is 2.34 µM (inactive); in the assay on EKVX, 8.59 µM (inactive); with T47D, 5.13 µM (inactive); in the assay with M14, 1.92 µM (inactive); in the assay on ACHN, 2.28 µM (inactive); in the assay on HOP-62 it was 2 µM (inactive). Also, in the assay on Malme-3M, the GI50 was 3.94 µM (inactive).
